Measured values published in US20030232884A1, “New pharmaceutical formulation” (Critical Therapeutics, Inc., priority 2002, published 2003).

Assay: Stability of ethyl pyruvate in three formulations as measured by pH change over time
Type: physicochemical
Method: Formulations comprising ethyl pyruvate at various concentrations ([…]) were prepared by dissolving ethyl pyruvate in either commercially available Ringer's Lactate solution (potassium chloride (0 to about 4 mM), sodium chloride (about 100 to about 156 mM), calcium chloride (about 2.5 mM to about 3.0 mM), and sodium lactate (about 25 mM to about 30 mM)) or Ringer-like solution (potassium chloride (0 to about 4 mM), sodium chloride (about 100 to about 156 mM) and calcium chloride (about 2.5 mM to about 3.0 mM)), or Intralipid™ (1 000 mL contain: purified soybean oil 100-300 g, purified egg phospholipids 12 g, glycerol anhydrous 22 g, water for injection q.s. ad 1 000 mL. pH was adjusted with sodium hydroxide to pH approximately 8. Osmolality was about 300 mOsm/kg water). Acidity of each solution was measured at 0, 5, 30 and 60 minutes, 2, 4, 24, and 48 hours after dissolution of ethyl pyruvate.

pH (Intralipid, EP 1 %, 0 min after dissolution): 6.8
pH (Intralipid, EP 1 %, 5 min after dissolution): 6.8
pH (Intralipid, EP 1 %, 30 min after dissolution): 6.8
pH (Intralipid, EP 1 %, 60 min after dissolution): 6.5
pH (Intralipid, EP 1 %, 2 h after dissolution): 6.5
pH (Intralipid, EP 1 %, 4 h after dissolution): 6.5
pH (Intralipid, EP 1 %, 24 h after dissolution): 6.5
pH (Intralipid, EP 1 %, 48 h after dissolution): 6.5
pH (Intralipid, EP 5 %, 0 min after dissolution): 6.8
pH (Intralipid, EP 5 %, 5 min after dissolution): 6.8
pH (Intralipid, EP 5 %, 30 min after dissolution): 6.5
pH (Intralipid, EP 5 %, 60 min after dissolution): 6.0
pH (Intralipid, EP 5 %, 2 h after dissolution): 6.0
pH (Intralipid, EP 5 %, 4 h after dissolution): 6.0
pH (Intralipid, EP 5 %, 24 h after dissolution): 5.5
pH (Intralipid, EP 5 %, 48 h after dissolution): 5.0
pH (Intralipid, EP 10 %, 0 min after dissolution): 6.8
pH (Intralipid, EP 10 %, 5 min after dissolution): 6.5
pH (Intralipid, EP 10 %, 30 min after dissolution): 6.0
pH (Intralipid, EP 10 %, 60 min after dissolution): 6.0
pH (Intralipid, EP 10 %, 2 h after dissolution): 6.0
pH (Intralipid, EP 10 %, 4 h after dissolution): 5.5
pH (Intralipid, EP 10 %, 24 h after dissolution): 4.0
pH (Intralipid, EP 10 %, 48 h after dissolution): 4.0
drop in pH (Lactated Ringers Balanced Salt Solution, 1%, 5% and 10% by weight, over a 48 hour period): relatively reduced drop in pH
pH (Ringer' lactate, EP 1 %, 0 min after dissolution): 6.0
pH (Ringer' lactate, EP 1 %, 5 min after dissolution): 6.0
pH (Ringer' lactate, EP 1 %, 30 min after dissolution): 5.5
pH (Ringer' lactate, EP 1 %, 60 min after dissolution): 5.5
pH (Ringer' lactate, EP 1 %, 2 h after dissolution): 5.2
pH (Ringer' lactate, EP 1 %, 4 h after dissolution): 5.2
pH (Ringer' lactate, EP 1 %, 24 h after dissolution): 5.2
pH (Ringer' lactate, EP 1 %, 48 h after dissolution): 5.2
pH (Ringer' lactate, EP 5 %, 0 min after dissolution): 6.0
pH (Ringer' lactate, EP 5 %, 5 min after dissolution): 5.5
pH (Ringer' lactate, EP 5 %, 30 min after dissolution): 5.3
pH (Ringer' lactate, EP 5 %, 60 min after dissolution): 5.2
pH (Ringer' lactate, EP 5 %, 2 h after dissolution): 5.2
pH (Ringer' lactate, EP 5 %, 4 h after dissolution): 5.2
pH (Ringer' lactate, EP 5 %, 24 h after dissolution): 5.2
pH (Ringer' lactate, EP 5 %, 48 h after dissolution): 5.2
pH (Ringer' lactate, EP 10 %, 0 min after dissolution): 6.0
pH (Ringer' lactate, EP 10 %, 5 min after dissolution): 5.3
pH (Ringer' lactate, EP 10 %, 30 min after dissolution): 5.3
pH (Ringer' lactate, EP 10 %, 60 min after dissolution): 5.2
pH (Ringer' lactate, EP 10 %, 2 h after dissolution): 5.2
pH (Ringer' lactate, EP 10 %, 4 h after dissolution): 5.2
pH (Ringer' lactate, EP 10 %, 24 h after dissolution): 5.2
pH (Ringer' lactate, EP 10 %, 48 h after dissolution): 5.0
pH (Ringer' solution (no lactate), EP 1 %, 0 min after dissolution): 6.5
pH (Ringer' solution (no lactate), EP 1 %, 5 min after dissolution): 6.5
pH (Ringer' solution (no lactate), EP 1 %, 30 min after dissolution): 6.5
pH (Ringer' solution (no lactate), EP 1 %, 60 min after dissolution): 5.5
pH (Ringer' solution (no lactate), EP 1 %, 2 h after dissolution): 5.5
pH (Ringer' solution (no lactate), EP 1 %, 4 h after dissolution): 5.5
pH (Ringer' solution (no lactate), EP 1 %, 24 h after dissolution): 5.5
pH (Ringer' solution (no lactate), EP 1 %, 48 h after dissolution): 5.5
pH (Ringer' solution (no lactate), EP 5 %, 0 min after dissolution): 6.5
pH (Ringer' solution (no lactate), EP 5 %, 5 min after dissolution): 6.0
pH (Ringer' solution (no lactate), EP 5 %, 30 min after dissolution): 6.0
pH (Ringer' solution (no lactate), EP 5 %, 60 min after dissolution): 5.2
pH (Ringer' solution (no lactate), EP 5 %, 2 h after dissolution): 5.2
pH (Ringer' solution (no lactate), EP 5 %, 4 h after dissolution): 4.0
pH (Ringer' solution (no lactate), EP 5 %, 24 h after dissolution): 2.0
pH (Ringer' solution (no lactate), EP 5 %, 48 h after dissolution): 2.0
pH (Ringer' solution (no lactate), EP 10 %, 0 min after dissolution): 6.5
pH (Ringer' solution (no lactate), EP 10 %, 5 min after dissolution): 5.5
pH (Ringer' solution (no lactate), EP 10 %, 30 min after dissolution): 5.3
pH (Ringer' solution (no lactate), EP 10 %, 60 min after dissolution): 5.2
pH (Ringer' solution (no lactate), EP 10 %, 2 h after dissolution): 5.2
pH (Ringer' solution (no lactate), EP 10 %, 4 h after dissolution): 2.0
pH (Ringer' solution (no lactate), EP 10 %, 24 h after dissolution): 2.0
pH (Ringer' solution (no lactate), EP 10 %, 48 h after dissolution): 2.0
stability as indicated by the pH readings (in Ringer's Lactate solution): remains stable
SMILES: CCOC(=O)C(C)=O [Ethyl Pyruvate, ethyl pyruvate]
